Where “and” joins values, the source holds several entries; their conditions need not be identical. Equal entries are not always repeated.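 48-hour exposure; five concentrations; linearly interpolated endpoints. Here, GI50 denotes the concentration required for 50% inhibition of growth. TGI: total growth inhibition.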 A value given as a limit tells only on which side of the number the result lay.

This is an account of results in PubChem BioAssay (NCI).

Common to all, as to assay: NCI anticancer screen, dose series, 48 h
For assay [1], the system named is DU-145 prostate.
In assay [2] the test system is HT29 colon.
In assay [3] the test system is PC-3 prostate.
Assay [4] has as its system BT-549 breast.
Assay [5] deals with LOX IMVI melanoma.
Assay [6] has as its system IGROV1 ovarian.
The test system of assay [7] is A549 NSCLC.
The test system of assay [8] is RPMI-8226 leukemia.
Assay [9] concerns SF-295 CNS.
Assay [10] relates to SNB-75 CNS.

For the molecule `CCCCCCCCCCCC(c1ccccc1)[N+](C)(C)C` (stereo not given), the GI50 in [1] was 1.56 µM; in assay [2], 0.296 µM; in assay [3], 0.393 µM; in assay [4] it was 1.31 µM; in [5], 0.425 µM; in assay [6] it was 0.417 µM. The GI50 in [7] is 1.46 µM; in assay [8], 0.462 µM; in [9] it was 2.32 µM; in assay [10] it was 1.15 µM. In addition, the TGI is 7.51 µM in assay [1]; 2.45 µM in assay [2]; 2.52 µM in assay [3]; 2.95 µM in assay [4]; 2.5 µM in assay [5]; 1.79 µM in assay [6]. For the same molecule, the TGI in [7] was found to be 3.97 µM; in [8] it was 1.92 µM; in assay [9] it was 8.9 µM; in assay [10], 2.55 µM.
With `CC(C)(Sc1cc(C(C)(C)C)c(O)c(C(C)(C)C)c1)Sc1cc(C(C)(C)C)c(O)c(C(C)(C)C)c1`, the TGI in assay [1], in assay [2], in assay [3], in assay [4], in [5] and in [6] was more than 100 µM in each case. The TGI in assay [7], in assay [8], in assay [9] and in assay [10] was more than 100 µM each time.
For the molecule `O=C(c1ccccc1)c1nc2ccc(Cl)cc2cc1C(Br)Br`, the TGI in assay [1] amounted to 1.97 µM; in [2], 0.743 µM; in assay [3], 0.744 µM; in [4] it was 1.12 µM; in assay [5], 3.7 µM; in assay [6] it was 4.38 µM. Also, the TGI in assay [7] stood at 3.31 µM; in assay [8], 1.18 µM; in assay [9], 0.939 µM; in assay [10], 1.41 µM.
Turning to `O=c1cc(-c2cccc(Cl)c2)[nH]c2cc3c(cc12)OCO3`, the TGI in assay [1] is 0.863 µM; in [2], 9.41 µM and 15.4 µM; in assay [3], more than 100 µM; in assay [4], 17.1 µM; in assay [5] it was 38.8 µM and 40.2 µM; in assay [7] it was 75 µM and 18.1 µM. In addition, the TGI was more than 100 µM in assay [8] and 0.712 µM in assay [10]. Moreover, the GI50 in [2] is 3.19 µM; in assay [5], 0.434 µM; in assay [6] it was 3.54 µM; in [7] it was 0.829 µM.
With `CCCCCOC(=O)c1c(C)[nH]c(/C=C2\N=C(c3ccc[nH]3)C=C2OC)c1C`, the GI50 in [1] is 0.0371 µM; in assay [2], 0.0154 µM; in assay [3], 0.0212 µM; in assay [4], 0.0469 µM; in assay [5], 0.0115 µM; in [6], 0.0494 µM. Further, the GI50 in [7] is 0.0293 µM; in [8], 0.028 µM; in assay [9] it was 0.0966 µM; in [10], 0.0429 µM. In addition, the TGI in assay [1] was found to be 1.68 µM; in assay [2] it was 1.34 µM; in [3], 3.27 µM; in assay [4], 1.1 µM; in assay [5] it was 0.025 µM; in assay [6], 1.52 µM. The TGI amounted to 0.184 µM in assay [7], 0.24 µM in assay [8], 0.544 µM in assay [9] and 0.619 µM in assay [10].
In the case of `COc1ccc(CC(C)NCC(O)c2ccc(O)c(NC=O)c2)cc1` (stereo not given), the TGI in assay [1], in [2], in assay [3], in [4], in assay [5] and in [6] was more than 100 µM throughout. Besides, the TGI in assay [7], in assay [8], in [9] and in assay [10] was more than 100 µM throughout.
For the molecule `COc1ccc2c(c1[N+](=O)[O-])CC[C@@H]1[C@@H]2CC[C@]2(C)C(=O)CC[C@@H]12`, the GI50 in [1] was more than 939 µM; in assay [2] it was more than 1000 µM; in assay [3], more than 684 µM; in assay [4], 470 µM; in assay [5], 434 µM; in [6], 741 µM. Moreover, the GI50 in assay [7] was more than 751 µM; in [8], more than 1000 µM; in assay [9], 342 µM; in assay [10], 142 µM. The TGI in [1], in assay [2], in assay [4], in assay [5], in assay [6] and in assay [7] was more than 1000 µM each time. Moreover, the TGI is more than 1000 µM in [8]; more than 968 µM in assay [9]; > 25 µM and 345 µM in assay [10].
As for `CC[C@@H]1C(=O)N(C)c2cnc(Nc3ccc(C(=O)NC4CCC(N5CCN(CC6CC6)CC5)CC4)cc3OC)nc2N1C(C)C` (stereo not given in full), the GI50 in [1] was 0.0118 µM and 0.0379 µM; in [2], 0.00436 µM and < 0.01 µM; in assay [3] it was 0.0287 µM and 0.0366 µM; in assay [4], 0.078 µM and 0.0387 µM; in assay [5] it was 0.0254 µM and 0.0339 µM; in [6], 0.0418 µM and 0.0524 µM. Further, the GI50 in assay [7] was 0.0308 µM and 0.0348 µM; in [8], 0.0382 µM and 0.0558 µM; in assay [9], 0.0353 µM and 0.0406 µM; in assay [10], 0.0296 µM and 0.0344 µM. The TGI is > 10 µM and 16.8 µM in assay [1]; 2.07 µM and 1.35 µM in [2]; > 10 µM and 17.7 µM in [3]; > 10 µM and 6.44 µM in [4]; 1.6 µM and 1.67 µM in assay [5]; > 10 µM and 7.22 µM in [6]. Also, the TGI in assay [8] is 1.62 µM and 1.89 µM; in assay [9], 2.51 µM and 2.44 µM; in [10] it was 6.73 µM.
`N#Cc1nc2cc(Cl)c(Cl)cc2nc1-c1ccc(Cl)cc1`: the GI50 in [1] was 49.6 µM; in assay [2], more than 100 µM; in [3] it was 34.8 µM; in [4] it was more than 100 µM; in assay [5], 71 µM; in [6] it was 73.2 µM. Also, the GI50 in assay [7] is 13.8 µM; in assay [8], 24.3 µM; in assay [9], 19.6 µM; in [10], 19.9 µM. The TGI in assay [1] is more than 100 µM; in assay [2] it was more than 100 µM; in [3] it was more than 67.7 µM; in [4], more than 100 µM; in assay [5] it was more than 100 µM; in assay [6], more than 100 µM. The TGI in [7] was more than 46.6 µM; in assay [8], more than 100 µM; in assay [9] it was 43.1 µM; in assay [10], 40.2 µM.
